The text below walks through data of patent publication US20220017863A1, “SIRT2-ABLATED CHIMERIC T CELLS” (H. Lee Moffitt Cancer Center and Research Institute, Inc., priority 2019, published 2022).

Usually IC50 stands for the concentration needed to halve the response being measured.

For data set [1], the system named is Pmel CD8+ T cells co-cultured with B16F10 target cells. Put plainly: LDH release cytotoxicity assay of Pmel CD8+ T cells on B16F10 targets. The settings on record: gp100-stimulated Sirt2KO (Sirt2−/−) Pmel T cells on B16F10 targets, 10 mM 2-DG. Format: cell-based, mouse. Here is the method:
Evaluation of functional cytotoxic activity was performed using Pierce™ LDH Cytotoxicity Assay Kit (ThermoFisher Scientific) according to the manufacturer's protocol. B16F10 cells were used as targets. Mouse CD3^+ TILs isolated from subcutaneous B16F10 tumor nodules and CD8^+ enriched T cells from gp100-stimulated Pmel splenocytes were used as effector cells. Briefly, target B16F10 tumor cells were co-cultured with effector cells in 96-well round-bottom microplates at the indicated effector:target ratios. After 6 hours, the percentage of specific LDH release was calculated according to the following formula: % cell lysis=(experimental value effector cells spontaneous release target cells spontaneous release)×100/(target cells maximum release target cells spontaneous release), where “experimental” corresponds to the experimental signal value, “effector spontaneous” to spontaneous release of LDH from effector cells alone, “target spontaneous” to spontaneous release of LDH from target cells alone and “maximum release” to the maximum release of LDH from target cells in medium containing 1% Triton X-100.
Evaluation of functional cytotoxic activity was performed using Pierce™ LDH Cytotoxicity Assay Kit (Thermo Fisher Scientific) according to the manufacturer's protocol. […]
Background: Release of lactate dehydrogenase indicates damage to the cell membrane.

For another data set, the system named is Pmel T cells. Put plainly: IFN-γ ELISPOT on gp100-stimulated Pmel T cells. Conditions: gp100-stimulated Sirt2KO (Sirt2−/−) Pmel T cells. In kind it is cell-based, mouse. The procedure: Spleens and/or Lymph nodes (LN) were collected from WT, Sirt2KO, Pmel/WT, Pmel/Sirt2KO mice and processed into single-cell suspensions. CD3^+, CD4^+ and CD8^+ T cells were negatively enriched using Mouse Pan T cell, CD4^+ T cell and CD8^+ T cell isolation Kits™ respectively according to the manufacturers' instructions. The purity of the isolated cells was confirmed by flow cytometry (>95%). Purified T cells were cultured in completed RPMI 1640 medium (ThermoFisher Scientific) supplemented with 10% (vol/vol) Fetal bovine serum (FBS, Biowest) and 1% (vol/vol) penicillin/streptomycin (P/S, Thomas Scientific Inc). […]
(§1) The number of IFN-γ producing cells was evaluated in an ELISPOT assay. […] After washing steps and biotinylated anti-IFN-γ antibody (R4-6A2, ThermoFisher Scientific)+Streptavidin-HRP (BD Bioscience) labeling, spots were detected using AEC Substrate Kit (BD Biosciences) and counted using an AID ELISPOT Reader System (Autoimmun Diagnostika GmbH). […]
(§2) The number of IFN-γ producing cells was evaluated in an ELISPOT assay. […] After washing steps and successive biotinylated anti-IFN-γ antibody (R4-6A2, Mabtech, Inc.) and Streptavidin-HRP (BD Bioscience) labeling, spots were detected using AEC Substrate Kit (BD Biosciences) and counted using an AID ELISPOT Reader System (Autoimmun Diagnostika GmbH).

Data set [2] relates to CD3+ TILs from B16F10 tumor nodules. Put plainly: IFN-γ ELISPOT on mouse CD3+ TILs re-challenged with irradiated B16F10 cells. Format: cell-based. Conditions: CD3+ TILs from subcutaneous B16F10 nodules of Sirt2KO versus WT mice. Here is the method:
Lymphocytes from subcutaneous tumors were isolated by dicing the tissues and enzymatic digestion in PBS containing collagenase type 4 (2 mg/ml, Worthington Biochemical) and DNase I (0.25 mg/ml, Sigma) for 45 min with occasional shaking at 37° C. Cell suspensions were then twice filtered through 100 μm and 40 μm cell strainers (ThermoFisher Scientific) to single-cell suspension followed by PBS wash and red blood cell lysis using RBC Lysis Buffer (Biolegend). TILs were finally isolated by density gradient centrifugation using Percoll (GE Healthcare) and further purified using CD3c MicroBeads Kit™ (Miltenyi Biotec) according to the manufacturer's instructions. […]
as §1, §2

The target of a further data set is T1, SIRT2 (Homo sapiens, UniProt Q8IXJ6).
T1 sequence (Q8IXJ6 1-389): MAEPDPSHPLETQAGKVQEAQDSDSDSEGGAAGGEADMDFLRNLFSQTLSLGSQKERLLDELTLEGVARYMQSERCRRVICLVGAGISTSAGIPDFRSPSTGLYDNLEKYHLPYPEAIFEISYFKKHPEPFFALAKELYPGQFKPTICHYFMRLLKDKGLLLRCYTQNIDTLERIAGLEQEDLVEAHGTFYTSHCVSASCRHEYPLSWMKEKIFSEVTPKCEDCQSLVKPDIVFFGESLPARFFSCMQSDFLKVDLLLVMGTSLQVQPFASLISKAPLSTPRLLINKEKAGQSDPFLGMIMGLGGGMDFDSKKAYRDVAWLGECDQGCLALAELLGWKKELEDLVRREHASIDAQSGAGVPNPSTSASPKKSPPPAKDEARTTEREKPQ
Conditions: cited from earlier work.

Another data set addresses T2, SIRT1 (Homo sapiens, UniProt Q96EB6).
T2 sequence (Q96EB6 1-747): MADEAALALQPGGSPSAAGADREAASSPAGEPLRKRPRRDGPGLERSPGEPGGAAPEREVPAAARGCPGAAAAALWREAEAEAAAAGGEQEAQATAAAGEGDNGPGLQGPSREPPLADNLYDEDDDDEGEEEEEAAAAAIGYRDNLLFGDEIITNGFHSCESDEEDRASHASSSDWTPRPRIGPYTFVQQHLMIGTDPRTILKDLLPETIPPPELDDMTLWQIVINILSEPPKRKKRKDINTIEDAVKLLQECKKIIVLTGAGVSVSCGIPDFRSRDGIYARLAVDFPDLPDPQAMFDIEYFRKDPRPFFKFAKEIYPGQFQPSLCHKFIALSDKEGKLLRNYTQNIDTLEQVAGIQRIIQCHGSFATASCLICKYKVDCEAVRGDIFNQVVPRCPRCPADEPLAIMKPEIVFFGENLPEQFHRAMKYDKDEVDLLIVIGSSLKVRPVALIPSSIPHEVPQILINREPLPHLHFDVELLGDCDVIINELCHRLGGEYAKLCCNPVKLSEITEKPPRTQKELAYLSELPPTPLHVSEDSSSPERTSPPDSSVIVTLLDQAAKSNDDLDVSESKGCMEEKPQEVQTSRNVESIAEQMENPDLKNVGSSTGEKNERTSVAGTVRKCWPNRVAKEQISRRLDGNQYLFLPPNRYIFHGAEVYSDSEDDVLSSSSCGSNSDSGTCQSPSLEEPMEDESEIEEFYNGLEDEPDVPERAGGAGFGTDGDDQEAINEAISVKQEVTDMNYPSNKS
Conditions: cited from earlier work.

Another data set has as its target T3, SIRT3 (Homo sapiens, UniProt Q9NTG7).
T3 sequence (Q9NTG7 1-399): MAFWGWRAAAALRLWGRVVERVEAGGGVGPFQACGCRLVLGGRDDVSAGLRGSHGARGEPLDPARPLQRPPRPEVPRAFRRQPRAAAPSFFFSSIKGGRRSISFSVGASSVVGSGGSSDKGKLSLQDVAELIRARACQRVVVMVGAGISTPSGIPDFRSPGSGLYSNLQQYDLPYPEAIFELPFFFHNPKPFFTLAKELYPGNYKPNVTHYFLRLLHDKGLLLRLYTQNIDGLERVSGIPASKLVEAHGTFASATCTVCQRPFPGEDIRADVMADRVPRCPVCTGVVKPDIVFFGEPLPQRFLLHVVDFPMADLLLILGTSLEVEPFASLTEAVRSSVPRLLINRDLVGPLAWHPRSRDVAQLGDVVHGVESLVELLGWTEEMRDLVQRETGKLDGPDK
The settings on record: cited from earlier work.

Some results are limits rather than exact numbers.

Take `O=CC[C@@H](O)[C@H](O)[C@H](O)CO` [2-DG, 2-deoxyglucose]: the cytotoxicity entry in data set [1] is on record as “profoundly suppressed”. The IFN-γ release entry in the data set with Pmel T cells is recorded as “profoundly suppressed”; in data set [2] it was “suppressed”.
Turning to `CCOC(=O)c1ccc(NC(=O)c2ccc3c(c2)C2C4CCC(C4)C2C(c2ccccc2)N3)cc1` (stereo not drawn) [AEM2], the IC50 at SIRT2 is 3.8 µM.
Take `O=C(Nc1cccc([N+](=O)[O-])c1)c1cccc(S(=O)(=O)N2CCCCCC2)c1` [AK-1]: the IC50 at SIRT1 and on SIRT3 was over 50 µM each time.
